According to patent publication US8865623B2, “Herbicidally active cyclic diones and derivatives thereof, processes for their preparation, compositions, and method of controlling weeds” (Syngenta Limited, priority 2009, dated 2014):

How the values were obtained:
Assay type in all cases: in vivo
[1] = tested on: Alopecurus myosuroides (ALOMY); assay: Pre-emergence herbicidal activity, glasshouse pot test; settings: Alopecurus myosuroides, 312 h, Rate 250 g/ha, evaluated after 13 days, read-out: Pre-emergence activity ALOMY (100=total damage to plant; 0=no damage to plant)
Summary of the method: (§1)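 Pot-grown plants in standard soil received a spray one day post-sowing (pre-emergence) or after eight days' growth (post-emergence). Scoring took place 13 days later on a 0–100 scale, 100 meaning total damage.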

[2] = tested on: Lolium perenne (LOLPE); assay: as above; settings: Lolium perenne, 312 h, Rate 250 g/ha, evaluated after 13 days, read-out: Pre-emergence activity LOLPE (100=total damage to plant; 0=no damage to plant)
Summary of the method: as §1

[3] = tested on: Avena fatua (AVEFA); assay: as above; settings: Avena fatua, 312 h, Rate 250 g/ha, evaluated after 13 days, read-out: Pre-emergence activity AVEFA (100=total damage to plant; 0=no damage to plant)
Summary of the method: as §1

[4] = tested on: Echinochloa crus-galli (ECHCG); assay: as above; settings: Echinochloa crus-galli, 312 h, Rate 250 g/ha, evaluated after 13 days, read-out: Pre-emergence activity ECHCG (100=total damage to plant; 0=no damage to plant)
Summary of the method: as §1

[5] = tested on: Alopecurus myosuroides (ALOMY); assay: Post-emergence herbicidal activity, glasshouse pot test; settings: Alopecurus myosuroides, 312 h, rate 250 g/ha, evaluated after 13 days, read-out: Post-emergence activity ALOMY (100=total damage to plant; 0=no damage to plant)
Summary of the method: as §1

[6] = tested on: Lolium perenne (LOLPE); assay: as above; settings: Lolium perenne, 312 h, rate 250 g/ha, evaluated after 13 days, read-out: Post-emergence activity LOLPE (100=total damage to plant; 0=no damage to plant)
Summary of the method: as §1

[7] = tested on: Avena fatua (AVEFA); assay: as above; settings: Avena fatua, 312 h, rate 250 g/ha, evaluated after 13 days, read-out: Post-emergence activity AVEFA (100=total damage to plant; 0=no damage to plant)
Summary of the method: as §1

[8] = tested on: Echinochloa crus-galli (ECHCG); assay: as above; settings: Echinochloa crus-galli, 312 h, rate 250 g/ha, evaluated after 13 days, read-out: Post-emergence activity ECHCG (100=total damage to plant; 0=no damage to plant)
Summary of the method: as §1

CCc1ccc(Oc2ccc(I)cn2)cc1C1=C(O)C(C)(C)OC(C)(C)C1=O [Example A-163] gave a pest or weed control at 250 g/ha ([1]; pre-emergence spray) of 70%, a pest or weed control at 250 g/ha ([2]; pre-emergence spray) of 100% and a pest or weed control at 250 g/ha ([3]; pre-emergence spray) of 70%. The pest or weed control at 250 g/ha ([4]; pre-emergence spray) was 100%, the pest or weed control at 250 g/ha ([5]; glasshouse) was 90% and the pest or weed control at 250 g/ha ([6]; glasshouse) was 100%. The pest or weed control at 250 g/ha ([7]; glasshouse) was 90% and the pest or weed control at 250 g/ha ([8]; glasshouse) was 100%.
With CCc1ccc(Oc2ccc(Cl)cc2F)cc1C1=C(O)[C@@H]2CC[C@](C)(C1=O)C2(C)C (single isomer, unassigned) [Example A-95] the pest or weed control at 250 g/ha ([1]; pre-emergence spray) was 70%, the pest or weed control at 250 g/ha ([2]; pre-emergence spray) was 90% and the pest or weed control at 250 g/ha ([3]; pre-emergence spray) was 80%. For the same compound, the pest or weed control at 250 g/ha ([4]; pre-emergence spray) was 90%, the pest or weed control at 250 g/ha ([5]; glasshouse) was 60% and the pest or weed control at 250 g/ha ([6]; glasshouse) was 50%. The pest or weed control at 250 g/ha ([7]; glasshouse) was 80% and the pest or weed control at 250 g/ha ([8]; glasshouse) was 80%.
CCc1ccc(Oc2nc3ccc(Cl)cc3s2)cc1C1=C(O)CC(C)(C)CC1=O [Example A-287] showed a pest or weed control at 250 g/ha ([1]; pre-emergence spray) of 100%, a pest or weed control at 250 g/ha ([2]; pre-emergence spray) of 100% and a pest or weed control at 250 g/ha ([3]; pre-emergence spray) of 90%. The pest or weed control at 250 g/ha ([4]; pre-emergence spray) was 100%, the pest or weed control at 250 g/ha ([5]; glasshouse) was 100% and the pest or weed control at 250 g/ha ([6]; glasshouse) was 100%. The pest or weed control at 250 g/ha ([7]; glasshouse) was 100% and the pest or weed control at 250 g/ha ([8]; glasshouse) was 100%.
With CCc1ccc(Oc2ccc(C#N)c(Cl)c2)cc1C1=C(O)[C@H]2CC[C@H](C2)C1=O [Example A-330] the pest or weed control at 250 g/ha ([1]; pre-emergence spray) was 80%, the pest or weed control at 250 g/ha ([2]; pre-emergence spray) was 100% and the pest or weed control at 250 g/ha ([3]; pre-emergence spray) was 80%. The pest or weed control at 250 g/ha ([4]; pre-emergence spray) was 100%, the pest or weed control at 250 g/ha ([5]; glasshouse) was 70% and the pest or weed control at 250 g/ha ([6]; glasshouse) was 70%. The pest or weed control at 250 g/ha ([7]; glasshouse) was 80% and the pest or weed control at 250 g/ha ([8]; glasshouse) was 100%.
CCc1ccc(Oc2cnc3ccc(Br)cc3n2)cc1C1=C(O)CC(C)(C)CC1=O [Example A-289] gave a pest or weed control at 250 g/ha ([1]; pre-emergence spray) of 60%, a pest or weed control at 250 g/ha ([2]; pre-emergence spray) of 90% and a pest or weed control at 250 g/ha ([3]; pre-emergence spray) of 40%. It also gave a pest or weed control at 250 g/ha ([4]; pre-emergence spray) of 100%, a pest or weed control at 250 g/ha ([5]; glasshouse) of 100% and a pest or weed control at 250 g/ha ([6]; glasshouse) of 100%. It also gave a pest or weed control at 250 g/ha ([7]; glasshouse) of 100% and a pest or weed control at 250 g/ha ([8]; glasshouse) of 100%.
CCc1ccc(Oc2ccc(C(F)(F)F)cn2)cc1C1=C(O)C(C)(C)OC(C)(C)C1=O [Example A-34] showed a pest or weed control at 250 g/ha ([1]; pre-emergence spray) of 100%, a pest or weed control at 250 g/ha ([2]; pre-emergence spray) of 100% and a pest or weed control at 250 g/ha ([3]; pre-emergence spray) of 100%. The pest or weed control at 250 g/ha ([4]; pre-emergence spray) was 100%, the pest or weed control at 250 g/ha ([5]; glasshouse) was 100% and the pest or weed control at 250 g/ha ([6]; glasshouse) was 100%. For the same compound, the pest or weed control at 250 g/ha ([7]; glasshouse) was 100% and the pest or weed control at 250 g/ha ([8]; glasshouse) was 100%.
For CCc1ccc(Oc2ncc(C(F)(F)F)cc2Cl)cc1C1=C(O)[C@@H]2CC[C@](C)(C1=O)C2(C)C [Example A-317], the pest or weed control at 250 g/ha ([1]; pre-emergence spray) was 100%, the pest or weed control at 250 g/ha ([2]; pre-emergence spray) was 100% and the pest or weed control at 250 g/ha ([3]; pre-emergence spray) was 100%. For the same compound, the pest or weed control at 250 g/ha ([4]; pre-emergence spray) was 100%, the pest or weed control at 250 g/ha ([5]; glasshouse) was 100% and the pest or weed control at 250 g/ha ([6]; glasshouse) was 100%. It also gave a pest or weed control at 250 g/ha ([7]; glasshouse) of 100% and a pest or weed control at 250 g/ha ([8]; glasshouse) of 100%.
CC1(C)OC(C)(C)C(O)=C(c2cc(Oc3ncc(Cl)cc3C(F)(F)F)ccc2C2CC2)C1=O [Example A-377] showed a pest or weed control at 250 g/ha ([1]; pre-emergence) of 70%, a pest or weed control at 250 g/ha ([2]; pre-emergence) of 80% and a pest or weed control at 250 g/ha ([3]; pre-emergence) of 60%. It also gave a pest or weed control at 250 g/ha ([4]; pre-emergence) of 100%, a pest or weed control at 250 g/ha [5] of 100% and a pest or weed control at 250 g/ha [6] of 100%. The pest or weed control at 250 g/ha [7] was 100% and the pest or weed control at 250 g/ha [8] was 100%.
Work on CCc1ccc(Oc2ncc(Cl)cc2F)cc1C1=C(O)CC(C)(C)CC1=O [Example A-85] yielded a pest or weed control at 250 g/ha ([1]; pre-emergence spray) of 100%, a pest or weed control at 250 g/ha ([2]; pre-emergence spray) of 100% and a pest or weed control at 250 g/ha ([3]; pre-emergence spray) of 100%. For the same compound, the pest or weed control at 250 g/ha ([4]; pre-emergence spray) was 100%, the pest or weed control at 250 g/ha ([5]; glasshouse) was 100% and the pest or weed control at 250 g/ha ([6]; glasshouse) was 90%. The pest or weed control at 250 g/ha ([7]; glasshouse) was 90% and the pest or weed control at 250 g/ha ([8]; glasshouse) was 100%.
Work on CCc1ccc(Oc2nc(F)c(Cl)cc2Cl)cc1C1=C(O)C(C)(C)OC(C)(C)C1=O [Example A-140] yielded a pest or weed control at 250 g/ha ([1]; pre-emergence spray) of 20%, a pest or weed control at 250 g/ha ([2]; pre-emergence spray) of 50% and a pest or weed control at 250 g/ha ([3]; pre-emergence spray) of 0%. For the same compound, the pest or weed control at 250 g/ha ([4]; pre-emergence spray) was 50%, the pest or weed control at 250 g/ha ([5]; glasshouse) was 70% and the pest or weed control at 250 g/ha ([6]; glasshouse) was 70%. For the same compound, the pest or weed control at 250 g/ha ([7]; glasshouse) was 70% and the pest or weed control at 250 g/ha ([8]; glasshouse) was 100%.
